Data: article PMC6325219, “Preclinical Characterization of NVR 3-778, a First-in-Class Capsid Assembly Modulator against Hepatitis B Virus” (Antimicrobial Agents and Chemotherapy, 2018)
Like-named read-outs stand apart in the source and are kept apart here. Marks after values point to notes of the source that are not given here.

Assays:
HBV = experiment: Antiviral studies using HepG2.2.15 cells (HBV DNA and HBV RNA readouts); format: cell-based, hepatitis B virus (GT D); conditions: for Effect on secreted HBV RNA, single drug: 6 days, increasing concentrations; for EC50: Hepatitis B virus
Procedure: In combination studies, cells were treated with compounds either alone or in combination after combining the compounds in a checkerboard format. In studies examining the effect of human serum, serially diluted NVR 3-778 was added into cell culture medium containing 0% to 40% human serum (BioreclamationIVT). Cells were incubated with the compounds for 3 days, after which the medium was removed, fresh medium containing the compounds was added to the cells, and the cells were incubated for another 3 days prior to harvesting of the supernatants or cells for antiviral assays. To quantify intracellular encapsidated rcDNA or encapsidated pgRNA, cells were first solubilized using lysis buffer containing 1% NP-40 and 10 mM CaCl2. The cytoplasmic fraction was then treated with S7 nuclease (6 units) to remove nonencapsidated nucleic acids, after which the S7 nuclease was inactivated by the addition of EDTA (0.5 M). […] The levels of HBV DNA were determined by a bDNA assay as described above (Affymetrix). Supernatants or cell lysates containing HBV RNA were treated with proteinase K (2.5 µg) at 50°C for 40 min, transferred to a capture plate containing HBV RNA probe sets, and hybridized overnight at 55°C. Captured HBV RNA was measured by the addition of a chemiluminescent substrate using a QuantiGene assay (Affymetrix). […] At day 6, the CellTiter-Glo reagent was added to the cells and viability was determined according to the manufacturer’s protocol (Promega). Luminescence signals were measured at 0.2 s using a Victor X4 multimode plate reader (PerkinElmer).

HBV GT B (wild-type HBV) = experiment: Transient-transfection antiviral study in HepG2 cells, GT B (wild-type HBV); format: cell-based, hepatitis B virus; conditions: for EC50: Hepatitis B virus; for EC50 FC, wild type: reference, ratio to wild-type HBV
Procedure: Cells were cotransfected with the HBV plasmids (100 ng/well) and a Gaussia expression plasmid (10 ng/well) (Thermo Scientific) using the Lipofectamine LTX Plus transfection reagent (Life Technologies). Transfection mixtures were removed after overnight incubation, and cells were treated with serially diluted NVR 3-778 at a final dimethyl sulfoxide (DMSO) concentration of 0.5%. After 3 days of incubation with the compound, the supernatants were collected and secreted Gaussia luciferase was measured using a Gaussia Flash luciferase assay kit (Thermo Scientific). […] Samples were diluted into lysis buffer (Affymetrix) containing 2.5 µg proteinase K (Affymetrix) at 50°C for 40 min. Intracellular encapsidated HBV DNA was denatured for 30 min at 25°C in 0.2 M NaOH (Sigma) and incubated with HBV DNA probes designed to hybridize to the minus-strand HBV DNA (Affymetrix). The denatured DNA was subsequently detected using a QuantiGene assay kit, according to the branched DNA (bDNA) assay recommended by the manufacturer (Affymetrix).

[1] = test system: HBV rtL180M/M204V variant; experiment: microbe, parasite or virus in culture; format: cell-based, hepatitis B virus
Excerpt: (§1) Plasmids containing HBV DNA with rtN236T, rtA181V, rtA181V/N236T, and rtL180M/M204V/N236T were generated using the GT B WT or rtL180M/M204V DNA-containing plasmids and site-directed mutagenesis (Agilent Technologies). A panel of nine different HBV core variants (cW102G, cW102R, cI105V, cI105L, cI105T, cT109S, cT109M, cT109I, and cY118F) was generated, also using the GT B WT DNA-containing plasmid and site-directed mutagenesis. The full-length genome from all plasmids was sequenced to confirm that only the intended nucleotide change(s) was present. Finally, HBV sequences from genotypes A (GenBank accession number AF305422), C (GenBank accession number AB033550), D (GenBank accession number V01460), E (GenBank accession number AB274971), F (GenBank accession number AB036912), G (GenBank accession number AF160501), and H (GenBank accession number AB375159) were gene synthesized as 1.1 times the genome length together with part of the CMV promoter at the 5′ end. The gene-synthesized piece was validated by sequencing and subcloned into the pCMV-HBV plasmid using the restriction sites SalI and NdeI (Genewiz, USA).
(§2) HepG2 cells were seeded in 96-well plates at a density of 20,000 cells/well and allowed to attach overnight at 37°C in 5% CO2. Cells were cotransfected with the HBV plasmids (100 ng/well) and a Gaussia expression plasmid (10 ng/well) (Thermo Scientific) using the Lipofectamine LTX Plus transfection reagent (Life Technologies). Transfection mixtures were removed after overnight incubation, and cells were treated with serially diluted NVR 3-778 at a final dimethyl sulfoxide (DMSO) concentration of 0.5%. After 3 days of incubation with the compound, the supernatants were collected and secreted Gaussia luciferase was measured using a Gaussia Flash luciferase assay kit (Thermo Scientific). Cells were lysed with 0.33% NP-40 (Thermo Scientific), and the cytoplasmic fractions were treated with 2 units of Turbo DNase (Invitrogen) and 10 units of S7 nuclease (Roche) in CutSmart buffer (New England Biolabs) containing 25 µM CaCl2 (G-Biosciences) at 37°C for 60 min, followed by inactivation of the enzymes at 75°C for 15 min. Samples were diluted into lysis buffer (Affymetrix) containing 2.5 µg proteinase K (Affymetrix) at 50°C for 40 min. Intracellular encapsidated HBV DNA was denatured for 30 min at 25°C in 0.2 M NaOH (Sigma) and incubated with HBV DNA probes designed to hybridize to the minus-strand HBV DNA (Affymetrix). The denatured DNA was subsequently detected using a QuantiGene assay kit, according to the branched DNA (bDNA) assay recommended by the manufacturer (Affymetrix).
(§3) To determine percent inhibition, the mean background signal from wells containing only culture medium was subtracted from the signal for all other samples, and percent inhibition at each compound concentration was calculated by normalization to the signals for HepG2.2.15 cells treated with 0.5% DMSO. […] Both CalcuSyn and MacSynergy II (Ann Arbor, MI) software were used to evaluate the effect of compound combinations ([27]). After data analysis at the 95% confidence level, values of synergy or antagonism of <25 µM^2% were defined as insignificant, those between 25 and 50 µM^2% were defined as minor, those between 50 and 100 µM^2% were defined as moderate, and those of >100 µM^2% were defined as strong.

[2] = test system: HBV rtL180M/M204V/N236T variant; experiment: microbe, parasite or virus in culture; format: cell-based, hepatitis B virus
Excerpt: as §1, §2, §3

[3] = ratio of mean EC50 against variant over WT HBV, HepG2 cells

O=C(Nc1cc(F)c(F)c(F)c1)c1ccc(F)c(S(=O)(=O)N2CCC(O)CC2)c1 [NVR 3-778]
Effect on secreted HBV RNA, single drug (HBV; HepG2.2.15 cells): inhibited the production of secreted HBV RNA | EC50 (HBV; HepG2.2.15 cells, QuantiGene assay, read-out: EC50, intracellular encapsidated pgRNA (mean)): 0.44 µM | EC50 (HBV; HepG2.2.15 cells, branched DNA assay, read-out: EC50, intracellular encapsidated rcDNA (mean)): 0.34 µM | EC50 (HBV; HepG2.2.15 cells, supernatant, read-out: EC50, secreted HBV DNA (mean)): 0.4 µM | EC50 (HBV; HepG2.2.15 cells, supernatant, read-out: EC50, secreted HBV RNA (mean)): 0.6 µM | EC50 (HBV GT B (wild-type HBV); HepG2, 72 h, read-out: EC50 (mean), HBV GT B): 0.2 µM | EC50 (HBV GT B (wild-type HBV); HepG2, read-out: EC50, wild type HBV): 0.23 ± 0.11 µM | EC50 (HBV GT B (wild-type HBV); HepG2, read-out: WT EC50): 0.31 ± 0.1 µM | EC50 FC, wild type (HBV GT B (wild-type HBV)): 1 fold | EC50 fold change, rtL180M/M204V [1, 3]: 1.3 ± 0.6^d fold | EC50 fold change, rtL180M/M204V/N236T [2, 3]: 1.4 ± 0.5^d fold

Nc1ccn([C@@H]2CS[C@H](CO)O2)c(=O)n1 [LMV, lamivudine, reference compound]
Effect on secreted HBV RNA, single drug (HBV; HepG2.2.15 cells): increased the production of secreted HBV RNA | EC50 (HBV; HepG2.2.15, values used as starting concentrations of the combination study, read-out: EC50 against HBV DNA replication in HepG2.2.15 cells): 0.15 µM | EC50 (HBV GT B (wild-type HBV); HepG2, read-out: WT EC50): 0.53 ± 0.12 µM | EC50 FC, wild type (HBV GT B (wild-type HBV)): 1 fold | EC50 ([1]; Hepatitis B virus, HepG2, read-out: EC50 (mean), rtL180M/M204V variant): > 100 µM | EC50 ([2]; Hepatitis B virus, HepG2, read-out: EC50, rtL180M/M204V/N236T variant): > 100 µM
